# Source: patent US5998406A, “Oxazolidinone derivatives and pharmaceutical compositions” (Pharmacia & Upjohn Company, priority 1998, dated 1999)
# Legend:
# Assay type in all cases: cell-based
# S. aureus, culture 9213 = assay: MIC, standard agar dilution, S. aureus culture 9213; conditions: Staphylococcus aureus, CULTURE9213, Mueller Hinton agar, overnight at 35 C, read-out: SAUR 9213 MIC
# Description: (§1) The in vitro MICs of test compounds are determined by a standard agar dilution method. A stock drug solution of each analog is prepared in the preferred solvent, usually DMSO:H2 O(1:3). Serial 2-fold dilutions of each sample are made using 1.0 ml aliquots of sterile distilled water. To each 1.0 ml aliquot of drug is added 9 ml of molten Mueller Hinton agar medium. The drug-supplemented agar is mixed, poured into 15×100 mm petri dishes, and allowed to solidify and dry prior to inoculation.
# (§2) Vials of each of the test organisms are maintained frozen in the vapor phase of a liquid nitrogen freezer. Test cultures are grown overnight at 35 C. on the medium appropriate for the organism. Colonies are harvested with a sterile swab, and cell suspensions are prepared in Trypticase Soy broth (TSB) to equal the turbidity of a 0.5 McFarland standard. A 1:20 dilution of each suspension is made in TSB. The plates containing the drug supplemented agar are inoculated with a 0.001 ml drop of the cell suspension using a Steers replicator, yielding approximately 10^4 to 10^5 cells per spot. The plates are incubated overnight at 35 C.
# (§3) Following incubation the Minimum Inhibitory Concentration (MIC μg/ml), the lowest concentration of drug that inhibits visible growth of the organism, is read and recorded.
# ^a) S. aureus, culture 9213
# [1] = system: H. influenzae, culture 30063; assay: MIC, standard agar dilution, H. influenzae culture 30063; conditions: Haemophilus influenzae, CULTURE30063, Mueller Hinton agar, overnight at 35 C, read-out: HINF 30063 MIC
# Description: as §1, §2, §3
# ^e) H. influenzae, culture 30063
# [2] = system: S. epidermidis, culture 12084; assay: MIC, standard agar dilution, S. epidermidis culture 12084; conditions: Staphylococcus epidermidis, CULTURE12084, Mueller Hinton agar, overnight at 35 C, read-out: SEPI 12084 MIC
# Description: as §1, §2, §3
# ^b) S. epidermidis, culture 12084
# [3] = system: S. pueumoniae, culture 9912; assay: MIC, standard agar dilution, S. pueumoniae culture 9912; conditions: Mueller Hinton agar, overnight at 35 C, read-out: SPNE 9912 MIC
# Description: as §1, §2, §3
# ^d) S. pueumoniae, culture 9912
# [4] = system: E. faecalis, culture 9217; assay: MIC, standard agar dilution, E. faecalis culture 9217; conditions: Enterococcus faecalis, CULTURE9217, Mueller Hinton agar, overnight at 35 C, read-out: EFAE 9217 MIC
# Description: as §1, §2, §3
# ^c) E. faecalis, culture 9217
# [5] = system: M. catarrhalis, culture 30610; assay: MIC, standard agar dilution, M. catarrhalis culture 30610; conditions: Moraxella catarrhalis, CULTURE30610, Mueller Hinton agar, overnight at 35 C, read-out: MCAT 30610 MIC
# Description: as §1, §2, §3
# ^f) M. catarrhalis, culture 30610
Compound,"MIC (S. aureus, culture 9213) [µg/mL]",MIC [1] [µg/mL],MIC [2] [µg/mL],MIC [3] [µg/mL],MIC [4] [µg/mL],MIC [5] [µg/mL]
"CC(=S)NC[C@H]1CN(c2ccc(N3CCC(=O)N(C)CC3)c(F)c2)C(=O)O1 [Example 4, (S)-N-[[3-[3-fluoro-4-(1,2,3,4,6,7-hexahydro-4-methyl-5-oxo-1,4-diazepin-1-yl)phenyl]-2-oxo-5-oxazolidinyl]methyl]-thioacetamide]",1,8,< 0.5,< 0.5,1,2
"CC(=O)NC[C@H]1CN(c2ccc(N3CCNC(=O)CC3)c(F)c2)C(=O)O1 [Example 1, (S)-N-[[3-[3-fluoro-4-(1,2,3,4,6,7-hexahydro-5-oxo-1,4-diazepin-1-yl)phenyl]-2-oxo-5-oxazolidinyl]methyl]acetamide]",4,8,1,0.5,4,8
"CC(=O)NC[C@H]1CN(c2ccc(N3CCC(=O)N(C)CC3)c(F)c2)C(=O)O1 [Example 3, (S)-N-[[3-[3-fluoro-4-(1,2,3,4,6,7-hexahydro-4-methyl-5-oxo-1,4-diazepin-1-yl)phenyl]-2-oxo-5-oxazolidinyl]methyl]-acetamide]",4,32,1,1,4,8
